Molecules are shown by their SMILES. Active and inactive are the calls of the source. The rule behind the calls is not given here.

The test can be described thus: blockers of mitochondrial fusion, WT vs mutant – cell-based, chemical genetic, wild-type and mutant, confirmation (AID 1361). The following applies: Cell-based mitochondrial fusion phenotype, imaging.
Where [1] appears, read: mutant cells, measured here: mutant cell line IC50.

As to `O=c1c2cn[nH]c2nc(SCc2c(F)cccc2F)n1-c1ccc(Cl)cc1`, the IC50 by setting is: (WT cells) > 25 µM (inactive); under setting [1], over 25 µM.
On to `O=C(Nc1ccc(Cl)cc1)N1CCN(c2ccc3nnc(-c4ccc(F)cc4)n3n2)CC1`, for which the IC50 reads like this: (WT cells) > 25 µM (inactive); under setting [1], over 25 µM.
With `COc1ccc(C(=O)N(Cc2nc(-c3ccc(C)cc3)no2)C2CCCCC2)cc1OC`, the 50% inhibitory concentration (IC50) was 20.2 µM (WT cells) and over 25 µM under setting [1].
`CCOc1ccc(NS(=O)(=O)c2ccc(NC(=S)NC(=O)CC(C)C)cc2)cc1`: the IC50 is, setting by setting: (WT cells) 14.3 µM; under setting [1], over 25 µM.
`CCc1cccc(CC)c1NC(=S)NCCc1c(C)[nH]c2ccccc12`: the IC50 is 19.8 µM (WT cells) and over 25 µM under setting [1].
As for `Cc1ccc(-c2ncccc2OC(=O)C23CC4CC(CC(C4)C2)C3)cc1`, the IC50 reads like this: (WT cells) 18.8 µM; under setting [1], over 25 µM.
For the molecule `Cc1cc(NC(=O)COC(=O)C(Nc2ccc(C(F)(F)F)cc2Cl)C(C)C)no1` (stereo unspecified), the IC50 reads like this: (WT cells) 13.8 µM; under setting [1], 24.2 µM.
As for `O=C(NCc1ccco1)c1cc(-c2ccccc2)on1`, the IC50 reads like this: (WT cells) > 25 µM (inactive); under setting [1], over 25 µM.
For the molecule `CC1CCCN(C(=O)N2c3ccccc3Sc3ccccc32)C1` (stereo unspecified), the half-maximal inhibitory concentration (IC50) is, setting by setting: (WT cells) 18.8 µM; under setting [1], over 25 µM.
For the molecule `CCc1ccc(CCC(=O)Nc2ccccc2C(=O)O)o1`, the IC50 (WT cells) was > 25 µM (inactive) and the concentration for half-maximal inhibition (IC50) under setting [1] is over 25 µM.
As to `Cc1ccc(C2CN(C)C3(C(=O)Nc4ccccc43)C23COc2ccccc2C3=O)cc1` (stereo unspecified), the IC50 (WT cells) was 11 µM and the half-maximal inhibitory concentration (IC50) under setting [1] amounted to 23.7 µM.
Regarding `O=C(c1ccccc1)c1cc(Cl)ccc1N1C(=O)C=CC1=O`, the IC50 is > 25 µM (inactive) (WT cells) and over 25 µM under setting [1].
Take `Cc1ccccc1NC(=O)CNc1ccccc1N1CCCCC1`: the IC50 (WT cells) is > 25 µM (inactive) and the IC50 under setting [1] is over 25 µM.
In the case of `c1ccc(Cn2c(SCc3cn4cccnc4n3)nnc2-c2ccco2)cc1`, the IC50 reads like this: (WT cells) > 25 µM (inactive); under setting [1], over 25 µM.
Regarding `CCCN(Cc1ccccc1)C(=S)Nc1ccc(SC(F)F)cc1`, the IC50 reads like this: (WT cells) 20.6 µM; under setting [1], over 25 µM.
In the case of `CCCCNC(=O)C1CCN(S(=O)(=O)c2cnc[nH]2)CC1`, the IC50 is, setting by setting: (WT cells) > 25 µM (inactive); under setting [1], over 25 µM.
Consider `CCOc1ccc(OCC)c(S(=O)(=O)NCCOC23CC4CC(CC(C4)C2)C3)c1`, for which the IC50 was > 25 µM (inactive) (WT cells) and over 25 µM under setting [1].
In the case of `CCn1nccc1C(=O)Nc1ccc(S(=O)(=O)NC23CC4CC(CC(C4)C2)C3)cc1`, the IC50 is > 25 µM (inactive) (WT cells) and over 25 µM under setting [1].
With `Fc1ccc(Cn2nnnc2C(c2cccs2)N2CCCCCC2)cc1` (stereo unspecified), the IC50 runs as follows: (WT cells) > 25 µM (inactive); under setting [1], over 25 µM.
For `CN1CC(=O)Nc2ccc(F)cc2C1=O`, the IC50 was > 25 µM (inactive) (WT cells) and over 25 µM under setting [1].
For `Cc1ccc(C)c(N2CCN(C(=O)C3CCCCN3S(=O)(=O)c3ccc(F)cc3)CC2)c1` (stereo unspecified), the IC50 (WT cells) was 18.3 µM and the half-maximal inhibitory concentration (IC50) under setting [1] is over 25 µM.
The matching figures for `O=C(CNC(=S)N(Cc1ccccc1)Cc1ccccc1F)NCc1ccc(Cl)cc1`: 5.67 µM and over 25 µM.
Turning to `C=CCOc1ccc2ccccc2c1CNCCCN1CCOCC1`, the IC50 reads like this: (WT cells) > 25 µM (inactive); under setting [1], over 25 µM.
Consider `C/C(=C\C(=O)c1ccccc1)Nc1cccc(O)c1`, for which the IC50 runs as follows: (WT cells) > 25 µM (inactive); under setting [1], over 25 µM.
Take `Clc1ccc2c(c1)C(c1ccccc1Cl)=NCc1nnc(N3CCN(CCSc4ccccc4)CC3)n1-2`: the half-inhibitory concentration (IC50) runs as follows: (WT cells) 13.9 µM; under setting [1], over 25 µM.
With `COC(=O)c1c(NC(=O)CN2CCC3(O)CCCCC3C2c2ccc(OC)cc2OC)sc(C)c1C` (stereo unspecified), the IC50 (WT cells) is 14.9 µM and the half-maximal inhibitory concentration (IC50) under setting [1] is over 25 µM.
For `CC(C)(C)c1ccc(OCC(=O)N2CCCCCC2)c(Br)c1`, the IC50 (WT cells) was > 25 µM (inactive) and the concentration for half-maximal inhibition (IC50) under setting [1] was over 25 µM.
As for `CCc1nnc(NC(=O)c2cccc(C(=O)Nc3nnc(CC)s3)n2)s1`, the IC50 (WT cells) is 23.8 µM and the IC50 under setting [1] was over 25 µM.
For `Cc1cccc(-n2c(CCc3ccccc3)nnc2SCC(=O)c2ccccc2)c1`, the IC50 is, setting by setting: (WT cells) 20.6 µM; under setting [1], over 25 µM.
As for `O=C1C(Cl)=C(NC2CCCCC2)C(=O)N1Cc1ccccc1`, the half-inhibitory concentration (IC50) is 19.1 µM (WT cells) and over 25 µM under setting [1].
In the case of `O=C(OC(C(=O)Nc1cccc(C(F)(F)F)c1)c1ccccc1)C1CCCCC1` (stereo unspecified), the IC50 (WT cells) is 9.59 µM and the IC50 under setting [1] was over 25 µM.
Consider `Cc1ccc(O)c(-c2cc(-c3ccccc3[N+](=O)[O-])[nH]n2)c1`, for which the IC50 is > 25 µM (inactive) (WT cells) and over 25 µM under setting [1].
In the case of `CCN(CC)CCNC(=O)Cn1nc(Cc2ccccc2)c2ccccc2c1=O`, the IC50 by setting is: (WT cells) > 25 µM (inactive); under setting [1], over 25 µM.
Regarding `CC1CCC(C(C)C)C(OC(=O)COC(=O)c2ccccc2N)C1` (stereo unspecified), the concentration for half-maximal inhibition (IC50) by setting is: (WT cells) 17.9 µM; under setting [1], over 25 µM.
`CCN(Cc1cc2cc(C)ccc2[nH]c1=O)C(=O)c1cccc(OC)c1`: the IC50 is > 25 µM (inactive) (WT cells) and over 25 µM under setting [1].
For the molecule `CC(=O)Oc1ccccc1N(C(C)=O)S(=O)(=O)c1ccc2ccccc2c1`, the IC50 reads like this: (WT cells) > 25 µM (inactive); under setting [1], over 25 µM.
The matching figures for `O=c1c2ccccc2nc2n1C1(CCCCC1)Cc1ccccc1-2`: 23.4 µM and over 25 µM.
Consider `Clc1cccc(NCc2nnc(SCc3ccc(Cl)cc3Cl)o2)c1`, for which the IC50 is 10.6 µM (WT cells) and over 25 µM under setting [1].
As for `CCN(CC)P(=O)(Nc1ccc(C)cc1Br)c1ccc(N(C)C)cc1NC(=O)c1ccco1` (stereo unspecified), the concentration for half-maximal inhibition (IC50) was 12.8 µM (WT cells) and over 25 µM under setting [1].
On to `COCCN1C(=O)/C(=C/c2ccc(OCc3ccc(C(=O)O)cc3)c(OC)c2)SC1=Nc1ccccc1`, for which the IC50 is, setting by setting: (WT cells) > 25 µM (inactive); under setting [1], over 25 µM.
In the case of `COc1cccc2cc(C(=O)N3CCc4ccccc43)c(=O)oc12`, the IC50 (WT cells) was > 25 µM (inactive) and the half-maximal inhibitory concentration (IC50) under setting [1] is over 25 µM.
On to `Cc1nc(C)c(-c2csc(Nc3cccc(O)c3)n2)s1`, for which the IC50 (WT cells) is > 25 µM (inactive) and the IC50 under setting [1] is over 25 µM.
`CCOc1ccc(NC(=O)C2CC(=O)N(C(C)C)C2)cc1` (stereo unspecified): the IC50 reads like this: (WT cells) > 25 µM (inactive); under setting [1], over 25 µM.
As for `CCOc1cc(C2Nc3ccccc3C(=O)N2c2ccccc2OC)ccc1O` (stereo unspecified), the IC50 (WT cells) was > 25 µM (inactive) and the 50% inhibitory concentration (IC50) under setting [1] was over 25 µM.
The corresponding values for `Cc1cc(N2C(=O)C=CC2=O)c([N+](=O)[O-])cc1C` are > 25 µM (inactive) and over 25 µM.
For `COCC(C)n1c(SCc2ccc(OC)c(F)c2)nc2ccccc2c1=O` (stereo unspecified), the IC50 is 15.3 µM (WT cells) and over 25 µM under setting [1].
Consider `Cc1ccc(C2=NN(S(=O)(=O)c3ccccc3)C(c3ccccc3O)C2)cc1` (stereo unspecified), for which the IC50 is, setting by setting: (WT cells) 3.89 µM; under setting [1], 24.4 µM.
Regarding `Cn1c(=O)c2c(nc(N3CCCCCC3)n2Cc2cccc3ccccc23)n(C)c1=O`, the half-maximal inhibitory concentration (IC50) is, setting by setting: (WT cells) 10 µM; under setting [1], over 25 µM.
Take `Clc1ccc(Cn2c(/C=C/c3ccco3)nc3ccccc32)cc1`: the half-inhibitory concentration (IC50) is, setting by setting: (WT cells) 12.6 µM; under setting [1], over 25 µM.
`Cc1ccc(S(=O)(=O)NCc2ccco2)c(C)c1C`: the IC50 is > 25 µM (inactive) (WT cells) and over 25 µM under setting [1].
Take `O=c1cc(-c2ccc(C3CCCCC3)cc2)[nH][nH]1`: the IC50 reads like this: (WT cells) > 25 µM (inactive); under setting [1], over 25 µM.
As to `CCC(=O)Nc1ccc(-c2nnc(SCc3ccc(C(=O)Nc4nccs4)cc3)n2CC)cc1`, the IC50 reads like this: (WT cells) > 25 µM (inactive); under setting [1], over 25 µM.
`c1ccc2c(c1)CCN(c1ncnc3c1[nH]c1ccccc13)C2`: the IC50 runs as follows: (WT cells) > 25 µM (inactive); under setting [1], over 25 µM.
In the case of `O=C(c1cc(-c2ccc(Cl)cc2)n(-c2ccc(Cl)c(Cl)c2)n1)N1CCOCC1`, the concentration for half-maximal inhibition (IC50) (WT cells) is 16.9 µM and the IC50 under setting [1] is over 25 µM.
Consider `Cc1cc(Cl)ccc1OCC(=O)Nc1nc(-c2cccs2)cs1`, for which the IC50 runs as follows: (WT cells) 13.4 µM (inactive); under setting [1], 9.8 µM.
Regarding `CC1=CCC[C@@H]2[C@@](C)(CC/C(C)=C/C(=O)O)[C@H](C)CC[C@@]12C`, the half-maximal inhibitory concentration (IC50) runs as follows: (WT cells) 21.7 µM; under setting [1], over 25 µM.
Turning to `COc1ccccc1NC(=O)CC1S/C(=N/N=C2\CCCc3ccccc32)NC1=O` (stereo unspecified), the IC50 (WT cells) is 19.6 µM and the IC50 under setting [1] is over 25 µM.
With `O=C(COc1ccccc1-c1ccccc1)NCc1cccc(Cl)c1`, the IC50 is 15 µM (WT cells) and over 25 µM under setting [1].
`CCOC(=O)C1=C(C)NC(C)=C(C(=O)OC)C1c1cccc(Cl)c1Cl` (stereo unspecified): the IC50 by setting is: (WT cells) 20.4 µM; under setting [1], over 25 µM.
On to `CCCCCOc1ccc(CSCCNC(=S)Nc2ccccc2)cc1`, for which the concentration for half-maximal inhibition (IC50) was 5.86 µM (WT cells) and over 25 µM under setting [1].
Consider `COc1nc(SC)nc(Cl)c1Cc1ccc(OC(C)C)cc1`, for which the IC50 is 24.1 µM (WT cells) and over 25 µM under setting [1].
Consider `COc1cccc(-c2nc(-c3ccccn3)no2)c1`, for which the IC50 by setting is: (WT cells) > 25 µM (inactive); under setting [1], over 25 µM.
`CCOC(=O)c1sc2nc(CSc3ccccc3)nc(N3CCC(C(N)=O)CC3)c2c1C`: the IC50 by setting is: (WT cells) > 25 µM (inactive); under setting [1], over 25 µM.
Turning to `CC(C)C(=O)N1CCC(CN=Cc2c(O)n(C3CCCCC3)c(=O)n(C3CCCCC3)c2=O)CC1`, the IC50 by setting is: (WT cells) 23 µM; under setting [1], over 25 µM.
As to `COCCNC(=O)CC(NS(=O)(=O)c1ccc(C)cc1)c1ccco1` (stereo unspecified), the IC50 is > 25 µM (inactive) (WT cells) and over 25 µM under setting [1].
The corresponding values for `CCOC(=O)C1CCN(S(=O)(=O)c2c(C)n[nH]c2C)CC1` are > 25 µM (inactive) and over 25 µM.
Consider `Cc1ccc(-n2cccc2C(=S)N=P(N(C)C)(N(C)C)N(C)C)cc1`, for which the IC50 (WT cells) was 9.32 µM and the concentration for half-maximal inhibition (IC50) under setting [1] was over 25 µM.
The corresponding values for `Cc1cccc(N2CCN(C(=O)COc3ccc4c(c3)CCC4)CC2)c1C` are 14.8 µM and over 25 µM.

The record behind these values is PubChem BioAssay AID1361 (SRMLSC, 2008).
